The source of these data is patent US4602035A, “Antidepressant (3-aryl-2,3-dihydrobenzofuran-3-yl)alkylamines” (Hoechst-Roussel Pharmaceuticals Inc., priority 1983, dated 1986).

As usually defined, the ED50 is the midpoint of the dose-response relation.

Experiment [1] relates to 2-phenyl-1,4-benzoquinone-induced writhing in mice. Description: 2-phenyl-1,4-benzoquinone-induced writhing (PQW) test in mice (analgesic activity). Type of experiment: in vivo. As to conditions: for ED50 / inhibition in vivo at 10 mg/kg: Mus musculus, sc; for PQW Percent writhing inhib.: s.c.; for inhibition in vivo at 10 mg/kg: 10 mg/kg s.c., read-out: PQW Percent writhing inhib. @ 10 mg/kg s.c. The source says:
Compounds I of the present invention are also useful as analgesic agents due to their ability to alleviate pain in mammals. […] Exptl. Biol. Med., 95, 729 (1957)].
Background: In writhing tests, fewer writhes than in controls are read as antinociception.

Experiment [2] relates to Tetrabenazine induced ptosis in mice. Description: Prevention of tetrabenazine (TBZ) induced ptosis in mice (antidepressant activity). The class given is in vivo. As to conditions: Mus musculus; for inhibition in vivo at 20 mg/kg: 20 mg/kg i.p., read-out: TBZ Percent ptosis inhit. @ 20 mg/kg i.p. The method, then:
The method used is as follows.
Male mice weighing 20 to 30 grams are used in test groups of five subjects. All compounds are dissolved, or suspended with one drop of a non-ionic surfactant in distilled water and administered in volumes of 10 ml/kg of body weight. Tetrabenazine (TBZ) solution is made from methanesulfonate salt and the concentration is adjusted to enable the administration of 40 mg/kg of base by intraperitoneal injection (i.p.).
If the test compound is administered intraperitoneally, TBZ is injected 30 minutes after administration. If the test compound is administered orally (p.o.), TBZ is injected 60 minutes after the administration. A control group receives solvent and TBZ by the same route and at the same intervals as the drug groups.
The total score for each group of five will therefore be from 0 to 20 and these scores are used as indications of drug activity.
The vehicle-control group score is used as a determinate of the validity of each test.
A linear-regression analysis is used to estimate ED50 values.

Where [3] appears, read: footnote a: determined by oral administration, mice, TBZ 40 mg/kg i.p., read-out: TBZ ED50 i.p.

Structures can show the parent of a compound that is named as a salt. Where two headings read alike, the source gives them in different places.

`CN(CCC1(c2ccccc2)COc2ccccc21)CC1CC1.O=C(O)/C=C/C(=O)O` (stereo not shown) [2-(3-Phenyl-2,3-dihydrobenzofuran-3-yl)-N-cyclopropylmethyl-N-methylethylamine fumarate] yielded a median effective dose (ED50) in experiment [1] of 6.27 mg/kg. Further, the inhibition in vivo at 20 mg/kg in experiment [2] (ip, mice) was found to be 22%.

Take `CN(CCC1(c2ccccc2)COc2ccccc21)C(=O)OCC(Cl)(Cl)Cl` (stereo not shown) [2-(3-Phenyl-2,3-dihydrobenzofuran-3-yl)-N-(2,2,2-trichloroethoxycarbonyl)-N-methylethylamine]: the inhibition in vivo at 20 mg/kg in experiment [2] (ip, mice) amounted to 6%.

`CN(C)CCCN1c2ccccc2CCc2ccccc21` [imipramine, reference compound]: the ED50 in experiment [2] (po, read-out: antidepressant ED50) was 5.5 mg/kg.

As to `CN(C)CCCC1(c2ccccc2)COc2ccccc21.O=C(O)C(=O)O` (stereo not shown) [3-(3-Phenyl-2,3-dihydrobenzofuran-3-yl)-N,N-dimethylpropylamine oxalate], the “PQW Percent writhing inhib.” value in experiment [1] (footnote c: at 25 mg/kg) came out at 59%. For the same compound, in experiment [2] (ip, mice), the inhibition in vivo at 20 mg/kg came out at 37%.

For `CNCCC1(c2ccccc2)COc2ccccc21.Cl` (stereo not shown) [2-(3-Phenyl-2,3-dihydrobenzofuran-3-yl)-N-methylethylamine hydrochloride], the inhibition in vivo at 10 mg/kg in experiment [1] is 53%. Moreover, in experiment [2] (setting [3]), the ED50 was 4.99 mg/kg.

In the case of `CNCCCC1(c2ccccc2)COc2ccccc21.Cl` (stereo not shown) [3-(3-Phenyl-2,3-dihydrobenzofuran-3-yl)-N-methylpropylamine hydrochloride], the inhibition in vivo at 10 mg/kg in experiment [1] came out at 54%. The 50% effective dose (ED50) in experiment [2] (ip, mice, TBZ 40 mg/kg i.p., read-out: TBZ ED50 i.p.) is 13.7 mg/kg.

Turning to `CN(CCCC1(c2ccccc2)COc2ccccc21)CCc1ccccc1` (stereo not shown) [3-(3-Phenyl-2,3-dihydrobenzofuran-3-yl)-N-methyl-N-phenethylpropylamine oxalate], in experiment [1], the inhibition in vivo at 10 mg/kg amounted to 46%. Also, the inhibition in vivo at 20 mg/kg in experiment [2] (ip, mice) was found to be 0%.

With `Cc1ccccc1C1(CCN(C)C)COc2ccccc21` (stereo not shown) [3-[3-(2-Tolyl)-2,3-dihydrobenzofuran-3-yl]-N,N-dimethylethylamine fumarate], in experiment [1], the inhibition in vivo at 10 mg/kg came to 34%. For the same compound, the inhibition in vivo at 20 mg/kg in experiment [2] (ip, mice) came out at 10%.

In the case of `CN(CCCC1(c2ccccc2)COc2ccccc21)CC1CC1` (stereo not shown) [3-(3-Phenyl-2,3-dihydrobenzofuran-3-yl)-N-cyclopropylmethyl-N-methylpropylamine oxalate], in experiment [1], the inhibition in vivo at 10 mg/kg is 48%. In addition, the inhibition in vivo at 20 mg/kg in experiment [2] (ip, mice) was found to be 10%.

As to `CN(CCc1ccccc1)CCC1(c2ccccc2)COc2ccccc21.O=C(O)/C=C/C(=O)O` (stereo not shown) [2-(3-Phenyl-2,3-dihydrobenzofuran-3-yl)-N-methyl-N-phenethylethylamine fumarate], the ED50 in experiment [1] was determined as 20 mg/kg. For the same compound, in experiment [2] (ip, mice), the inhibition in vivo at 20 mg/kg amounted to 17%.

For `CN(C)CCC1(c2ccccc2)COc2ccccc21.O=C(O)C(=O)O` (stereo not shown) [2-(3-Phenyl-2,3-dihydrobenzofuran-3-yl)-N,N-dimethylethylamine oxalate], in experiment [1] (footnote b: at 20 mg/kg), the “PQW Percent writhing inhib.” value is reported as 49%. The ED50 in experiment [2] (setting [3]) amounted to 3.03 mg/kg.

For the compound `CN(C)CCCC1(c2ccccc2)COc2ccc(Cl)cc21.O=C(O)C(=O)O` (stereo not shown) [3-(3-Phenyl-5-chloro-2,3-dihydrobenzofuran-3-yl)-N,N-dimethylpropylamine oxalate], in experiment [1] (footnote b: at 20 mg/kg), the “PQW Percent writhing inhib.” value is 38%. In experiment [2] (ip, mice), the inhibition in vivo at 20 mg/kg amounted to 15%.

Turning to `CN(CCCC1(c2ccccc2)COc2ccccc21)C(=O)OCC(Cl)(Cl)Cl` (stereo not shown) [3-(3-Phenyl-2,3-dihydrobenzofuran-3-yl)-N-(2,2,2-trichloroethoxycarbonyl)-N-methylpropylamine], the inhibition in vivo at 10 mg/kg in experiment [1] was determined as 32%.

As for `CN(C)CCC1(c2ccccc2F)COc2ccccc21` (stereo not shown) [3-[3-(2-Fluorophenyl)-2,3-dihydrobenzofuran-3-yl]-N,N--dimethylethylamine fumarate], the inhibition in vivo at 10 mg/kg in experiment [1] came to 35%. Also, the inhibition in vivo at 20 mg/kg in experiment [2] (ip, mice) is 60%.

As to `CN(C#N)CCC1(c2ccccc2)COc2ccccc21` (stereo not shown) [2-(3-Phenyl-2,3-dihydrobenzofuran-3-yl)-N-cyano-N-methylethylamine], the inhibition in vivo at 10 mg/kg in experiment [1] was determined as 59%. Also, in experiment [2] (ip, mice), the inhibition in vivo at 20 mg/kg is 20%.

Turning to `Cc1ccc(C2(CCN(C)C)COc3ccccc32)cc1` (stereo not shown) [3-[3-(4-Tolyl)-2,3-dihydrobenzofuran-3-yl]-N,N-dimethylethylamine fumarate], the inhibition in vivo at 10 mg/kg in experiment [1] amounted to 61%. For the same compound, the inhibition in vivo at 20 mg/kg in experiment [2] (ip, mice) was 20%.

As for `CN(CCC#N)CCC1(c2ccccc2)COc2ccccc21` (stereo not shown) [2-(3-Phenyl-2,3-dihydrobenzofuran-3-yl)-N-(2-cyanoethyl)-N-methylethylamineoxalate], the “PQW Percent writhing inhib.” value in experiment [1] (footnote b: at 20 mg/kg) is reported as 33%. In addition, the inhibition in vivo at 20 mg/kg in experiment [2] (ip, mice) was 21%.
